The text below walks through data of ChEMBL document CHEMBL3507680, “University of Dundee, Gates Library screen for HepG2 cell viability”.

SMILES strings stand for the structures.

This data set is described as follows: Human HepG2 cell viability assay in 384 well format. Format: toxicity, cell-based. Set-up: dose 125 nL, time 70.5 hour; cytotoxicity at 70.5 h: concentration not given beside the values. The settings on record: HepG2 cells, read-out: Inhibition.
As for `CC1(C)CC1(C(=O)N1CC(c2cccnc2)C1)c1ccc(F)cc1` (configuration not stated), the cytotoxicity at 70.5 h was found to be 29.7%. For `CC(C)[C@@H]1CN(C2CCN(Cc3ccccc3)CC2)C[C@H]1NS(C)(=O)=O`, the cytotoxicity at 70.5 h amounted to 0.292%.

As for `OCC1(O)CCN(c2ccnc3c(C(F)(F)F)cccc23)CC1`, the cytotoxicity at 70.5 h is -3.41%. In the case of `CC(=O)c1cnc(N(C)Cc2cc(C)cc(C)n2)nc1C`, the cytotoxicity at 70.5 h is -8.24%. The value for `COC(=O)CCCn1ccnc1-c1ccccc1` was -3.23%.

For the compound `O=C(O)c1cccc(N2C[C@H](NC(=O)C3CCOCC3)[C@@H](C3CC3)C2)n1`, the cytotoxicity at 70.5 h is -4.78%.

Regarding `Cc1cc(N2CCC(c3nccn3Cc3cscn3)CC2)ccn1`, the cytotoxicity at 70.5 h is -3.14%.

For `CCC(CC)CN1CCC2(CCC(=O)N2OCc2ccccc2F)CC1`, the cytotoxicity at 70.5 h stood at 21.6%. The value for `CCOC(=O)c1coc(N2CCC(N3CCC(O)CC3)CC2)n1` was -7.59%; that for `CS(=O)(=O)N1CCC(N2CCCC2c2ccccn2)CC1` (configuration not stated) was 2.33%; that for `CN1CC(c2ccccc2)CC2(CCN(C(=O)c3ccccc3)CC2)C1` (configuration not stated) was -5.15%. For the compound `Nc1ccnc(N2C[C@H](O)[C@@H](N3CCN(c4ccccn4)CC3)C2)n1`, the cytotoxicity at 70.5 h was -17.6%. The result for `Cc1nn2c(N3CCC(C#N)CC3)cc(-c3ccccc3)nc2c1C` reads 1.27%; that for `Cn1ccnc1SCCNC1CCN(c2nc3ccccc3s2)CC1`, -1.58%. In the case of `Cc1nc(C(C)C)ncc1C(=O)N1CCc2c(nc(N(C)C)[nH]c2=O)C1`, the cytotoxicity at 70.5 h is -4.39%. On to `CCc1nn(C)c(Cl)c1CN1CCC(Cc2nncn2C)CC1`, for which the cytotoxicity at 70.5 h is -3.75%.

For the compound `CSCc1nc(CCNC(=O)C2CCCN(C(C)=O)C2)cs1` (configuration not stated), the cytotoxicity at 70.5 h is -2.37%.

Regarding `CCN1CC2(CCC1=O)CCN(Cc1nncn1C)CC2`, the cytotoxicity at 70.5 h is -5.87%. As to `O=C(NCCc1nccs1)C1CCCN(Cc2ccco2)C1` (configuration not stated), the cytotoxicity at 70.5 h was -2.53%.

With `CCOc1ccc(CN2CCCC(c3nn(C)c(=O)n3CC)C2)cn1` (configuration not stated), the cytotoxicity at 70.5 h was -6.89%. Consider `Cc1noc(-c2ccc(N3CCN(Cc4nccn4C)CC3)nc2)n1`, for which the cytotoxicity at 70.5 h was -15.7%. The value for `Fc1ccc(-c2cc(NCCC3CCOC3)n3nccc3n2)cc1` (configuration not stated) was 0.148%; that for `COC(C)(C)C(=O)N[C@H]1CN(c2nccnc2N(C)C)C[C@@H]1C(C)C` was -5.98%; that for `CC(C)c1nc(CCn2cncn2)n(-c2ccc3c(c2)OCCO3)n1` was -12.6%.

Turning to `CC(C)CCNC(=O)C(c1cccc(F)c1)N(C)C` (configuration not stated), the cytotoxicity at 70.5 h amounted to 3.05%. For the compound `c1cc2c(c(-c3cc(N4CCOCC4)ncn3)c1)CCNC2`, the cytotoxicity at 70.5 h was -7.28%.

On to `CCCOC1CCCN(c2ccnc(C(=O)NCc3ccco3)c2)C1` (configuration not stated), for which the cytotoxicity at 70.5 h was -8.53%. The value for `CN1CCC(O)(CCNC(=O)[C@@]23CNC[C@@H]2CN(C2CCCC2)C3)CC1` was 11.4%. On to `c1ccc2c(c1)CC(n1ccnc1-c1cc3n(n1)CCCNC3)CO2` (configuration not stated), for which the cytotoxicity at 70.5 h is -6.83%. The value for `O=C(CC1CC1)N(Cc1cccnc1)CC1CCN(C2CCCC2)CC1` was -1.09%. As to `Cc1cccc2c(=O)n(C(C)Cc3cccnc3)cnc12` (configuration not stated), the cytotoxicity at 70.5 h was -8.06%. Consider `COCCCn1c(CN2CCSCC2)cnc1S(=O)(=O)C1CCCC1`, for which the cytotoxicity at 70.5 h is -2.29%. The value for `CC(C)CCCC1CN(C(=O)c2cnc[nH]2)CCO1` (configuration not stated) was -11.4%.

For the compound `Cc1cc(C)c2c(N3CCN(Cc4ncccc4C)CC3)ncnc2n1`, the cytotoxicity at 70.5 h was -8.35%. Take `Cc1nc2cc(C(=O)N3C[C@@H](NS(C)(=O)=O)[C@H](C(C)C)C3)ccc2[nH]1`: the cytotoxicity at 70.5 h worked out at 18.5%. Consider `Cc1cc(C)c2nc(CN3CCOCC(O)C3)cc(O)c2c1` (configuration not stated), for which the cytotoxicity at 70.5 h was -0.735%.

For the compound `CCN(Cc1nc(COC)no1)Cc1cccnc1NC`, the cytotoxicity at 70.5 h is -21.9%.

Consider `CCOC(=O)c1coc(N2CCC(C(O)CC(C)C)CC2)n1` (configuration not stated), for which the cytotoxicity at 70.5 h is -1.6%. For `COc1cccc(N2CCC(N3CCOC(C(F)(F)F)C3)CC2)c1` (configuration not stated), the cytotoxicity at 70.5 h is -18.1%. The result for `O=C(NC1CCNC1)C1(N2CCCCC2)Cc2ccccc2C1` (configuration not stated) reads 1.09%; that for `CN1CCC(n2nc(CC3CC3)nc2-c2ccc(F)cc2Cl)CC1`, -7.5%. In the case of `COC[C@@]12CC[C@@H](N3CCOCC3)C[C@H]1CCN(c1cnccn1)C2`, the cytotoxicity at 70.5 h came to 13.9%. The result for `Cc1ccc(-c2cn(C3CCN(C(=O)[C@H]4CCCO4)CC3)nn2)cc1` reads -5.5%; that for `COCCCN1CCN(c2ncnc3nc(C)cc(C)c23)CC1`, -4.17%; that for `CCNc1ncc(CN(CCN(C)C)Cc2ccc(C)s2)cn1`, -7.34%. In the case of `CCCN1CCC(N2CCC(Cn3cc(CC(C)O)nn3)CC2)CC1` (configuration not stated), the cytotoxicity at 70.5 h is -6.23%. For `CC(C)(O)CCc1ccc(C(=O)N2Cc3cnn(CCO)c3C2)cc1`, the cytotoxicity at 70.5 h is -11.3%.

On to `CCCc1ncc(CN(C)C2CCCN(CCc3ccccc3)C2)cn1` (configuration not stated), for which the cytotoxicity at 70.5 h is -4.41%.

Regarding `CN(C)[C@@H]1C[C@@H](CO)N(C(=O)Nc2cccc(F)c2F)C1`, the cytotoxicity at 70.5 h was found to be 19.1%. Turning to `Cc1nc2c(c(NCC(O)c3ccccc3Cl)n1)CCNCC2` (configuration not stated), the cytotoxicity at 70.5 h was -11.8%. As for `Oc1cccc2ccc(CN3CCC4(CCNCC4)C3)nc12`, the cytotoxicity at 70.5 h was -4.99%. On to `C=C(C)COc1cccc(C(=O)N(CC)Cc2nccn2C)c1`, for which the cytotoxicity at 70.5 h was 2.21%.

As for `CN(C)CCn1ccnc1C1CCCN(C(=O)CCc2cccnc2)C1` (configuration not stated), the cytotoxicity at 70.5 h was -4.26%. As to `Cc1cccnc1NCCNC(=O)c1cnc(-c2cccs2)nc1O`, the cytotoxicity at 70.5 h is -0.575%. Take `COc1cccc(N2CCN(Cc3cc(C)cc(F)c3)CC2=O)c1`: the cytotoxicity at 70.5 h was -3.94%. For the compound `CC[C@H](CO)NC(=O)c1coc(COc2cccc(F)c2F)n1`, the cytotoxicity at 70.5 h is 9.55%.

For `O=C1CC(NCc2cnc(C3CCCCC3)nc2)CN1c1ccccc1` (configuration not stated), the cytotoxicity at 70.5 h was 13.8%.

`Cn1cc(CN2CCCC(CCc3ccccc3C(F)(F)F)C2)cn1` (configuration not stated): the cytotoxicity at 70.5 h was -1.24%. Take `Cc1ncnc(NC(CC(C)(C)C)c2cccnc2)c1C` (configuration not stated): the cytotoxicity at 70.5 h is -2.93%. As for `COc1ccc(CN(C)C2CCN(C(=O)C(C)C)CC2)c2cccnc12`, the cytotoxicity at 70.5 h is -10.3%. The value for `COC(=O)c1ccc2ccn(CC3CCCN(C)C3)c(=O)c2c1` (configuration not stated) was 25.4%; that for `CC(C)c1cc(NCC2(CO)CCC2)ncn1` was 17.4%.

For the compound `CCOCCn1nc(C)cc1C(=O)N(C)Cc1cccc2ncccc12`, the cytotoxicity at 70.5 h stood at 20.2%. As for `Cc1nsc(NC(=O)NC2CCOCC2)n1`, the cytotoxicity at 70.5 h was determined as 13.1%. Take `CCN1CCN(C(=O)c2cc(-c3cccn3C)n[nH]2)[C@H]2CS(=O)(=O)C[C@H]21`: the cytotoxicity at 70.5 h is -18.3%. With `Cc1ccc(-c2cnnc(NCC3CCOCC3)n2)o1`, the cytotoxicity at 70.5 h was determined as 28.5%. The value for `Cc1nn(C)c2nc(N(Cc3nccs3)C3CC3)sc12` was -15.9%. In the case of `Cn1c(C(N)=O)cc2c1CN(C(=O)C1CCCN(C3CCCC3)C1)CC2` (configuration not stated), the cytotoxicity at 70.5 h is -7.9%. In the case of `CN(Cc1nncn1C)C(=O)c1cc(COc2ccccc2)[nH]n1`, the cytotoxicity at 70.5 h was -5.51%. On to `CCC(=O)N1CCN(Cc2cnc(C)nc2)[C@H]2CS(=O)(=O)C[C@H]21`, for which the cytotoxicity at 70.5 h came out at 12.9%. Consider `CCCc1cncnc1N1CCC(NCCc2ccc(O)cc2)CC1`, for which the cytotoxicity at 70.5 h is -6.17%. Take `Cc1cc(C(=O)N[C@H]2CN(CCO)C[C@@H]2C2CC2)sc1C`: the cytotoxicity at 70.5 h was -3.28%. In the case of `CN1CCCC(CCC(=O)N2CCc3c(nc(CC4CC4)[nH]c3=O)C2)C1` (configuration not stated), the cytotoxicity at 70.5 h is -4.3%. The result for `Nc1cc(-c2ccc(C(=O)O)cc2O)c2cc[nH]c2n1` reads 4.2%.

Regarding `CCC(=O)Nc1cc(Cl)ccc1C(=O)N(C)Cc1noc(CC)n1`, the cytotoxicity at 70.5 h is -5.2%. As for `Cc1cnccc1CNCc1ccc(OC23CCCN(CC2)C3)cc1` (configuration not stated), the cytotoxicity at 70.5 h was -6.06%. For the compound `CN1CCCCC1CCC(=O)NCCCn1nccc1C1CC1` (configuration not stated), the cytotoxicity at 70.5 h is -11.4%. The result for `CC(C)n1cc(C(=O)NCCc2cn3ccsc3n2)cn1` reads 13.8%; that for `CNC(=O)[C@@H]1C[C@@H](N)CN1C1CCN(Cc2ccccn2)CC1`, 20.3%. As to `CCn1cc(CN2CCN(Cc3cccc(OC)c3)C(=O)C2)cc1C#N`, the cytotoxicity at 70.5 h is -1.17%.

With `Cc1cc(CN2C[C@H]3CC[C@@H]2CN(Cc2[nH]cnc2C)C3)on1`, the cytotoxicity at 70.5 h was -6.39%. Regarding `Cc1noc(C)c1-c1n[nH]c2c1CN(S(=O)(=O)c1cccnc1)CC2`, the cytotoxicity at 70.5 h is -6.84%. The value for `OC1CCN([C@@H]2CCN(c3nc(-c4ccccc4)no3)C[C@H]2O)CC1` was -1.33%; that for `CNc1cc(C)nc(N2C[C@H](NC(=O)C3CCOCC3)[C@@H](C3CC3)C2)n1` was 1.67%. For the compound `Cc1cccc(CN2C[C@@H](CN3CCCN(C)CC3)[C@@H](CO)C2)n1`, the cytotoxicity at 70.5 h worked out at 26.4%. The value for `Cc1ccsc1-c1cccc(-c2ccn(CC3CCNC3)n2)c1` (configuration not stated) was 21.5%. The result for `Cc1cccnc1CNCC1(O)CCCN(CC(C)(C)C)C1=O` (configuration not stated) reads -4.51%. `COc1ccc(OC)c(-n2cnnc2CCN)c1`: the cytotoxicity at 70.5 h was -4.57%. As to `CNC(=O)[C@@H]1C[C@H](N)CN1S(=O)(=O)c1cc(Cl)c(Cl)s1`, the cytotoxicity at 70.5 h is -2.73%. In the case of `COc1ccc(CN(C)C(=O)c2nnc(CN(C)C)o2)cc1`, the cytotoxicity at 70.5 h was -3.32%. The result for `Cc1nn(C)cc1CN1C[C@@H]2CC[C@H](C1)N(Cc1c(C)noc1C)C2=O` reads 32.1%; that for `Cc1noc(C)c1CCN1CCCC1c1nc2cc(F)ccc2[nH]1` (configuration not stated), -5.52%; that for `Cc1ccccc1-n1cc(CN(C)C[C@@H]2CCCN3CCCC[C@H]23)cn1`, -12.2%. With `CN1C[C@H]2N(c3ncccn3)CCC[C@@]2(C(=O)NCC2CC2)C1`, the cytotoxicity at 70.5 h was -6.84%. For the compound `O=C(NCc1cccnc1)N1CCc2ncnc(NC3CC3)c2CC1`, the cytotoxicity at 70.5 h came to 11.7%. For `Cc1noc(C)c1CN1CCc2ncnc(-c3cccnc3)c2CC1`, the cytotoxicity at 70.5 h is -0.64%.

Take `O=C(C1CCCO1)N1CCC2(CC1)COCCN(Cc1cccnc1)C2` (configuration not stated): the cytotoxicity at 70.5 h was -2.16%.
